Measurements as given in ChEMBL document CHEMBL1143543, “Potent 1,3,4-trisubstituted pyrrolidine CCR5 receptor antagonists: effects of fused heterocycles on antiviral activity and pharmacokinetic properties” (Bioorg Med Chem Lett, 2005).

How the values were obtained:
[1] = system: Human immunodeficiency virus 1; test: Antiinfective activity in HeLa cells against HIV-1(BAL) in the absence of 50% of human serum; assay type: functional; details: Human immunodeficiency virus 1, HeLa
[2] = system: Human immunodeficiency virus 1; test: Antiinfective activity in HeLa cells against HIV-1(BAL) in the presence of 50% of human serum; assay type: functional; details: Human immunodeficiency virus 1, HeLa
[3] = target: C-C chemokine receptor type 5 (Homo sapiens, UniProt P51681); test: Displacement of [125I]-MIP-1 alpha from human C-C chemokine receptor type 5 expressed on CHO cell membranes
Sequence of C-C chemokine receptor type 5 (P51681 whole entry): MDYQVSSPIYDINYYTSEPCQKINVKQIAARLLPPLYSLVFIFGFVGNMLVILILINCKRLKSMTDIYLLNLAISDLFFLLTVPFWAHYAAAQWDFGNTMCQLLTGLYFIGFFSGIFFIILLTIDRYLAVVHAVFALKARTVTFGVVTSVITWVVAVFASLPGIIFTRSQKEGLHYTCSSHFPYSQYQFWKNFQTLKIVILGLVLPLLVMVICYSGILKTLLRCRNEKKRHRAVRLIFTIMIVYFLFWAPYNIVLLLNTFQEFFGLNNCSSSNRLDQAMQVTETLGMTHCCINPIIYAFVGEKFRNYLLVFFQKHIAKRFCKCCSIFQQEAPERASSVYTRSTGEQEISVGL

[4] = Oral bioavailability in rat; assay type: ADME, organism-based; details: in vivo
[5] = Half life in rat; assay type: ADME; details: in vivo
[6] = Bioavailability in rat; assay type: ADME, organism-based; details: in vivo
[7] = Plasma clearance in rat; assay type: ADME, organism-based; details: read-out: Clp
[8] = target: Voltage-gated L-type calcium channel (Homo sapiens, UniProt Q13936+Q13698+Q01668+O60840); test: Inhibitory concentration against L-type [Ca2+] channel; assay type: protein assay
[9] = Inhibitory concentration against PBM cells; assay type: functional; details: PBMC
[10] = target: Voltage-gated inwardly rectifying potassium channel KCNH2 (Homo sapiens, UniProt Q12809); test: Inhibitory activity against human Potassium channel HERG
Sequence of Voltage-gated inwardly rectifying potassium channel KCNH2 (Q12809 whole entry): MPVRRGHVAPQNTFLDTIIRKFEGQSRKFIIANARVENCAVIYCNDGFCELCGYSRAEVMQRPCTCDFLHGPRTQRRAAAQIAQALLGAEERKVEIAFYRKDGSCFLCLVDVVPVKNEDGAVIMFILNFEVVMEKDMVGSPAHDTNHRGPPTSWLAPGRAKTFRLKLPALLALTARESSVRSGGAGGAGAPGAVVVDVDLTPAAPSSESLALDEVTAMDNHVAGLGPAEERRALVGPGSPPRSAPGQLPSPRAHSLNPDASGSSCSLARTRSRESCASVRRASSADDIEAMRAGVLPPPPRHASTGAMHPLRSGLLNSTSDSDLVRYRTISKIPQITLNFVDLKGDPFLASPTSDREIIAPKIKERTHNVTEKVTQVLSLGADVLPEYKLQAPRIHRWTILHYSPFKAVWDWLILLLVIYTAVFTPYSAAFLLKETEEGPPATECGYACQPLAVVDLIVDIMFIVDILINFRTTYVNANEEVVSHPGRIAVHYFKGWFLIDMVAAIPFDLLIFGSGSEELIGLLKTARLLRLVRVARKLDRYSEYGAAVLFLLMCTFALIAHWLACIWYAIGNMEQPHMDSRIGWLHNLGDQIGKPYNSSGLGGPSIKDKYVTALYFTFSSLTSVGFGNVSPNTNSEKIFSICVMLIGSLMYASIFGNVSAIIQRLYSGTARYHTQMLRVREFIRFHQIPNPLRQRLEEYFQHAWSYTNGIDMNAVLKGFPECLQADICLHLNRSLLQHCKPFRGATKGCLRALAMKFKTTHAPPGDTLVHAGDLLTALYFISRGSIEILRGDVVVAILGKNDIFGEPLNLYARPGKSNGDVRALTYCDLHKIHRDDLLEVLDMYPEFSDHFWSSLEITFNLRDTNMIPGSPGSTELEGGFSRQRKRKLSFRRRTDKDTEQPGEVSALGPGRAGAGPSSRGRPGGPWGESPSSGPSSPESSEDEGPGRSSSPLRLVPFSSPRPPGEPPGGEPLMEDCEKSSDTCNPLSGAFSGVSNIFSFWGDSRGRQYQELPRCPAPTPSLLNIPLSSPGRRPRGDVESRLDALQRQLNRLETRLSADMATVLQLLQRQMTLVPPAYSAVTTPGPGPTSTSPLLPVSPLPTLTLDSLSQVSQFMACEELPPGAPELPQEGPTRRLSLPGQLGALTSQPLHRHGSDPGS

| SMILES | IC90 [1] | IC90 [2] | IC50 [3] | other results |
| --- | --- | --- | --- | --- |
| O=C(O)[C@@H](C1CCCCC1)N1C[C@H](CN2CCC(Cn3cnc4ccccc43)CC2)[C@@H](c2ccccc2)C1 | 0.1 µM | > 0.3 µM | 0.0063 µM |  |
| O=C(O)[C@@H](CC1CCC1)N1C[C@H](CN2CCC(c3nnc4ccccn34)CC2)[C@@H](c2ccccc2)C1 | 0.1 µM | > 0.3 µM | 0.012 µM |  |
| O=C(O)[C@@H](C1CCCCC1)N1C[C@H](CN2CCC(n3cnc(=O)c4ccccc43)CC2)[C@@H](c2ccccc2)C1 |  |  | 0.1 µM |  |
| O=C(O)[C@@H](C1CCCCC1)N1C[C@H](CN2CCC(CCCn3cnc4ccccc43)CC2)[C@@H](c2ccccc2)C1 | 0.0012 µM | 0.033 µM | 0.00084 µM | bioavailability [4]: < 2% |
| O=C(O)[C@@H](CC1CCC1)N1C[C@H](CN2CCC(c3cnc4ccc(-c5ccccc5)cn34)CC2)[C@@H](c2cccc(F)c2)C1 | 0.011 µM | 0.3 µM | 0.0008 µM | half-life [5]: 96 min; bioavailability [6]: 19%; clearance [7]: 83 mL/min/kg |
| O=C(O)[C@@H](C1CCCCC1)N1C[C@H](CN2CCC(CCn3cnc4ccccc43)CC2)[C@@H](c2ccccc2)C1 | 0.1 µM | > 0.3 µM | 0.0026 µM |  |
| CCc1ccn2c(C3CCN(C[C@H]4CN([C@H](CC5CCC5)C(=O)O)C[C@@H]4c4cccc(F)c4)CC3)cnc2c1 | 0.00013 µM | 0.011 µM | 0.00035 µM | half-life [5]: 150 min; bioavailability [6]: 11%; clearance [7]: 67 mL/min/kg |
| O=C(O)[C@@H](CC1CCC1)N1C[C@H](CN2CCC(c3cnc4ccc(Cl)cn34)CC2)[C@@H](c2cccc(F)c2)C1 | 0.0012 µM | 0.1 µM | 0.00089 µM | half-life [5]: 42 min; IC50 [8]: > 10 µM; bioavailability [6]: 26%; clearance [7]: 16 mL/min/kg |
| O=C(O)[C@@H](C1CCCCC1)N1C[C@H](CN2CCC(n3cnc4ccccc4c3=O)CC2)[C@@H](c2ccccc2)C1 |  |  | 0.012 µM |  |
| O=C(O)[C@@H](CC1CCC1)N1C[C@H](CN2CCC(c3cnc4ccc(F)cn34)CC2)[C@@H](c2cccc(F)c2)C1 | 0.0037 µM | 0.3 µM | 0.0003 µM | half-life [5]: 48 min; bioavailability [6]: 38%; clearance [7]: 19 mL/min/kg |
| O=C(O)[C@@H](C1CCCCC1)N1C[C@H](CN2CCC(n3c(=O)[nH]c4ccccc43)CC2)[C@@H](c2ccccc2)C1 |  |  | 0.063 µM |  |
| O=C(O)[C@@H](CC1CCC1)N1C[C@H](CN2CCC(c3cnc4ccc([N+](=O)[O-])cn34)CC2)[C@@H](c2cccc(F)c2)C1 | 0.1 µM | 0.3 µM | 0.0006 µM | half-life [5]: 12 min; bioavailability [6]: 61%; clearance [7]: 120 mL/min/kg |
| O=C(O)[C@@H](C1CCCCC1)N1C[C@H](CN2CCC(n3cnc4ncccc43)CC2)[C@@H](c2ccccc2)C1 |  |  | 0.023 µM |  |
| O=C(O)[C@@H](C1CCCCC1)N1C[C@H](CN2CCC(n3nnc4ccccc43)CC2)[C@@H](c2ccccc2)C1 | 0.1 µM |  | 0.0082 µM |  |
| O=C(O)[C@@H](CC1CCC1)N1C[C@H](CN2CCC(CCCc3ccccc3)CC2)[C@@H](c2ccccc2)C1 |  |  |  | IC95 [9]: < 0.008 µM |
| Cc1cc(C)n2ncc(C3CCN(C[C@H]4CN([C@H](CC5CCC5)C(=O)O)C[C@@H]4c4cccc(F)c4)CC3)c2n1 | > 0.3 µM | > 0.3 µM | 0.007 µM |  |
| O=C(O)[C@@H](CC1CCC1)N1C[C@H](CN2CCC(c3cnc4ccccn34)CC2)[C@@H](c2cccc(F)c2)C1 | 0.0012 µM | 0.033 µM | 0.00042 µM | half-life [5]: 126 min; IC50 [8]: > 10 µM; bioavailability [6]: 4%; clearance [7]: 38 mL/min/kg |
| O=C(O)[C@@H](CC1CCC1)N1C[C@H](CN2CCC(c3cnc4cnccn34)CC2)[C@@H](c2cccc(F)c2)C1 | 0.011 µM | 0.1 µM | 0.001 µM |  |
| O=C(O)[C@@H](CC1CCC1)N1C[C@H](CN2CCC(c3cn4cccnc4n3)CC2)[C@@H](c2ccccc2)C1 |  |  | 0.2 µM |  |
| O=C(O)[C@@H](C1CCCCC1)N1C[C@H](CN2CCC(n3cnc4ccccc43)CC2)[C@@H](c2ccccc2)C1 | 0.011 µM | 0.1 µM | 0.0025 µM | bioavailability [4]: < 2% |
| O=C(O)[C@@H](CC1CCC1)N1C[C@H](CN2CCC(c3cnc4c(Cl)cc(Cl)cn34)CC2)[C@@H](c2cccc(F)c2)C1 | 0.033 µM | 0.3 µM | 0.0005 µM | half-life [5]: 24 min; bioavailability [6]: 39%; clearance [7]: 20 mL/min/kg |
| O=C(O)[C@@H](CC1CCC1)N1C[C@H](CN2CCC(c3cnc4ccc(C(F)(F)F)cn34)CC2)[C@@H](c2cccc(F)c2)C1 | 0.011 µM | 0.3 µM | 0.00082 µM | IC50 [10]: < 10 µM; half-life [5]: 48 min; IC50 [8]: > 10 µM; bioavailability [6]: 26%; clearance [7]: 18 mL/min/kg |
| O=C(O)[C@@H](C1CCCCC1)N1C[C@H](CN2CCC(n3cnc4cccnc43)CC2)[C@@H](c2ccccc2)C1 | 0.033 µM |  | 0.0028 µM |  |
| O=C(O)[C@@H](C1CCCCC1)N1C[C@H](CN2CCC(c3c[nH]c4ccccc34)CC2)[C@@H](c2ccccc2)C1 |  |  | 0.01 µM |  |
| O=C(O)[C@@H](CC1CCC1)N1C[C@H](CN2CCC(c3ncc4ccccn34)CC2)[C@@H](c2cccc(F)c2)C1 | > 0.3 µM | > 0.3 µM | 0.013 µM |  |
| O=C(O)[C@@H](CC1CCC1)N1C[C@H](CN2CCC(c3cnc4ncccn34)CC2)[C@@H](c2cccc(F)c2)C1 | 0.033 µM | 0.1 µM | 0.0035 µM |  |
| O=C(O)[C@@H](CC1CCC1)N1C[C@H](CN2CCC(c3cn4ccncc4n3)CC2)[C@@H](c2cccc(F)c2)C1 | 0.3 µM | 0.3 µM | 0.029 µM |  |
| O=C(O)[C@@H](CC1CCC1)N1C[C@H](CN2CCC(c3cnc4cccnn34)CC2)[C@@H](c2cccc(F)c2)C1 | 0.011 µM | 0.3 µM | 0.003 µM |  |
| O=C(O)[C@@H](CC1CCC1)N1C[C@H](CN2CCC(c3cn4ccccc4n3)CC2)[C@@H](c2cccc(F)c2)C1 |  |  | 0.065 µM |  |
